Test results published in US20230390269A1, “METHOD OF TREATMENT WITH TRADIPITANT” (Vanda Pharmaceuticals Inc., priority 2017, published 2023).
Values belong to the compound of their own block, whether it stands above or below them. Bridge positions count the residues as written; N and C are the ends. Square brackets hold non-standard residues; d marks the D form. Peptide text beside a SMILES is read from it. * marks the point of attachment. NH(β-GlcNAc) = CC(=O)N[C@@H]1[C@@H](O)[C@H](O)[C@@H](CO)O[C@H]1N*; Dap = NC[C@H](N)C(=O)O

Key:
NK-1 = target: T1, NK-1 (Homo sapiens, UniProt P25103); conditions: patients with IBS, double-blind study; cited from earlier work
T1 construct: host or cells: patients with IBS
T1 sequence (P25103 whole entry): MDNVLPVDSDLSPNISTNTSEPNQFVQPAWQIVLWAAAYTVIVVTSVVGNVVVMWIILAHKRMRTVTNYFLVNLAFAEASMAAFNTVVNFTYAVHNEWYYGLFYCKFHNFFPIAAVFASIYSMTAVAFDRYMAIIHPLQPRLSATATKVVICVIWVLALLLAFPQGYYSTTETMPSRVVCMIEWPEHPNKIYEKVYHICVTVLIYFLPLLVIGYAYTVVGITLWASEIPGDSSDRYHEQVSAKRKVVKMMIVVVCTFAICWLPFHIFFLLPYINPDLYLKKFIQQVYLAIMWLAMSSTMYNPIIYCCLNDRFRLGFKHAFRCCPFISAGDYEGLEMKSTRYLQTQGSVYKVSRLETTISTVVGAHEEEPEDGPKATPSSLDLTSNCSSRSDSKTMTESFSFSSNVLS

NK-1 receptor [1] = target: T2, NK-1 receptor (Meriones unguiculatus, UniProt Q5DUB1); test: NK-1 agonist (GR73632, icv)-induced foot-tapping behavior in gerbils; type: in vivo, Mongolian gerbil
T2 construct: from tissue; host or cells: living gerbil, brain (icv agonist)
T2 sequence (Q5DUB1 whole entry): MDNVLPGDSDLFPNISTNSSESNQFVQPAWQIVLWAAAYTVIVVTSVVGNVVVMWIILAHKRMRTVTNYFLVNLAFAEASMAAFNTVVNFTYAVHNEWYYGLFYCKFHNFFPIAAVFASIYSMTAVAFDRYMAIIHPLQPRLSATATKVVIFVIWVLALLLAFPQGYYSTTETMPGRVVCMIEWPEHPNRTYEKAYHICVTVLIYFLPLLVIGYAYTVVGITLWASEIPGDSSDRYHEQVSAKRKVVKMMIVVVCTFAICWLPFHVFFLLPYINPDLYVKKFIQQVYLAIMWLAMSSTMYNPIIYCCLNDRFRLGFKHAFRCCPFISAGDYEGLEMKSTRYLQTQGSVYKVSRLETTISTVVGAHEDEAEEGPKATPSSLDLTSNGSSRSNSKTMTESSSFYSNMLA
Description: Male Mongolian gerbils (Harlan Sprague Dawley, Indianapolis, IN) weighing 26 to 40 grams are administered the selective neurokinin-1 receptor agonist GR73632 (3 pmol) via direct, vertical, free-hand intracerebroventricular (icy) injection to a depth of 4.5 mm below bregma with a cuffed 27-gauge needle attached to a 50 μl Hamilton syringe. Immediately after injection, animals are placed individually into isolated chambers with pressure-sensitive velocimeter platform floors (San Diego Instruments acoustic startle apparatus) that detect and quantify vibration. The San Diego Instruments “SR” DOS-based computer program is used on a PC to record the number of foot-taps over the following 6 to 10 minutes, beginning 30 seconds after the floor was lightly tapped. Raw data is converted with a Microsoft Excel macro that determines the number of events over threshold (125) in each 250-millisecond time bin over the 5.5 minutes following onset of observation. The total number and average intensity of events over the duration is determined. Total number of taps is analyzed with one-way ANOVA and post-hoc Dunnett's test using JMP statistical software.
A dose-response curve (with doses of 0.3, 1, 3 and 10 pmols, icy) is initially generated with the NK-1 agonist GR73632. […] The 3 pmol dose is subsequently chosen as the dose of choice for antagonism experiments.
NK-1 antagonists are tested for their ability to attenuate GR73632-induced foot tapping. NK-1 antagonists are administered (po) via oral feeding tube at doses and time points specified in each experiment. All animals receive only one dose of NK-1 antagonists in all tests.
NK-1 antagonists are administered at multiple doses (at least 3; one dose per animal) and response to GR73632 is measured.
Tradipitant is dissolved in 1% CMC/0.5% SLS/0.085% PVP vehicle.

NK-2 receptor [2] = target: T3, NK-2 receptor (Homo sapiens, UniProt P21452); conditions: in vivo; cited from earlier work
T3 sequence (P21452 1-398): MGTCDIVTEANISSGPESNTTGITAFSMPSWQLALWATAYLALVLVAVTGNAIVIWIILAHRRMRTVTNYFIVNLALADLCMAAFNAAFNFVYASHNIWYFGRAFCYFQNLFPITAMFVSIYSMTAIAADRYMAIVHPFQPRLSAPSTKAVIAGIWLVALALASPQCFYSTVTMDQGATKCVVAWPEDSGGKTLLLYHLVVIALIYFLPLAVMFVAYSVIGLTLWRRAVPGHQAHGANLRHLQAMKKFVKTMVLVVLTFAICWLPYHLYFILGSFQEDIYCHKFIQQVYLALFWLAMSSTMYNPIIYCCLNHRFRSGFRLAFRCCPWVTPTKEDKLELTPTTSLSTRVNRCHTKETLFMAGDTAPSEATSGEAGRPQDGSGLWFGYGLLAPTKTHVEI

NK-3 receptor = target: T4, NK-3 receptor (Homo sapiens, UniProt P29371); test: NK-3 receptor inhibition (selectivity panel); type: binding
T4 sequence (P29371 1-465): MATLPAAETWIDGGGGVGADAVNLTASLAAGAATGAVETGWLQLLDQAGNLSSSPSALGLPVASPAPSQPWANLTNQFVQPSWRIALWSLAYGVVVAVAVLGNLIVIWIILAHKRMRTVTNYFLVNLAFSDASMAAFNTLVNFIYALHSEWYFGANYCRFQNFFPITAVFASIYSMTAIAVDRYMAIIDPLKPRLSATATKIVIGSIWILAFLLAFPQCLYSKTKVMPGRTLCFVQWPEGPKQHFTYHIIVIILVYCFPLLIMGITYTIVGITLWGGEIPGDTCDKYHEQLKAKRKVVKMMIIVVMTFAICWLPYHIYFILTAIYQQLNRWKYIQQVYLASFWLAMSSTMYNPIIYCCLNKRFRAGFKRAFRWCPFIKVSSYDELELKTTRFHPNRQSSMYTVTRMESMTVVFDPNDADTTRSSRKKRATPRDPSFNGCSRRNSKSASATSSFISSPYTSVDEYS
Description: (§1) In addition, tradipitant is evaluated in a panel of 74 other receptors, enzymes, and ion channels.

NK-1 receptor [3] = target: T5, NK-1 receptor (Cavia porcellus, UniProt P30547); test: GR73632-induced vocalization in guinea pigs; type: in vivo, guinea pig
T5 construct: from tissue; host or cells: living guinea pig, brain (icv agonist)
T5 sequence (P30547 whole entry): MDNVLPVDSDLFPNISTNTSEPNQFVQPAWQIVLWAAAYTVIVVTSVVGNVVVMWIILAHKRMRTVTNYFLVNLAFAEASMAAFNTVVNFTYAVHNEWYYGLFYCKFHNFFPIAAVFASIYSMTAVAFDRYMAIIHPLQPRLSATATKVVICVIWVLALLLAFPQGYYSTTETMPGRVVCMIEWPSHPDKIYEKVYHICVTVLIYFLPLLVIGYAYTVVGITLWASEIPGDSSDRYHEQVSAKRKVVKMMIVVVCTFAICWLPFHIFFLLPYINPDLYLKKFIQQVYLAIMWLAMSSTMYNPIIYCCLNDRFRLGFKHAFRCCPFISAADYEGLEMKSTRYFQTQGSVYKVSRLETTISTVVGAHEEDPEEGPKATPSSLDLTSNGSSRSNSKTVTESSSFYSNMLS
Description: When introduced into the brain, the NK-1 receptor agonist, substance P (SP) elicits distress vocalizations in the guinea pig that can be inhibited by NK-1 antagonists (Kramer et al. 1998; Rupniak et al. 2000).
Male Dunkin/Hartley guinea pigs (200 to 250 grams) are orally administered either vehicle or an NK-1 antagonist. Approximately 45 minutes later (for dose response studies), the animals are anesthetized and 0.1 nmol of GR73632 (SP analog) in a vehicle volume of 5 μl is injected into the cerebral ventricle at the intersection of bregma and the midline of the skull. Animals are placed in a dark testing chamber located inside of a sound attenuation cubicle and vocalizations are recorded for 30 minutes following recovery from anesthesia. The time spent vocalizing is quantified for each animal. In the duration of action study (FIG. 5), 0.1 mg/kg of tradipitant or vehicle solution is administered orally and then 2, 4, or 7 hours later, 0.1 nmol of GR73632 is administered into the cerebral ventricle as described above. Vocalizations are recorded and quantified as indicated above. Vehicle solutions are either CMC (FIG. 4 data) or a 10% ethanol/emulphor, 10% propylene glycol solution (FIGS. 5 and 6). Data is analyzed using one-tailed t-tests.

[4] = test system: panel of 74 other receptors, enzymes, and ion channels; test: Selectivity panel of 74 other receptors, enzymes and ion channels; type: binding
Description: By 3 different measures, tradipitant is also a potent centrally active NK-1 antagonist in vivo.
as §1

NK-2 receptor [5] = target: T3, NK-2 receptor; test: NK-2 receptor inhibition (selectivity panel); type: binding
Description: as §1

nausea in gastroparesis = test: Phase II study in patients with gastroparesis, open label extension; type: in vivo, human; conditions: 85 mg bid
Source text: In a phase II study of tradipitant in patients with gastroparesis, participants initially enter 4 week screening period prior to treatment with tradipitant, during which they answer a daily symptom questionnaire rating their nausea severity on a scale of […] 0 represents no nausea, 1 represents very mild nausea, 2 represents mild nausea, 3 represents moderate nausea, 4 represents severe nausea, and 5 represents very severe nausea. After the 4 week screening period, patients enter the double blind randomized portion of the study, in which they receive either tradipitant 85 mg bid, or placebo. After 4 weeks of blinded study drug treatment, patients have the opportunity to enter an additional 8 week open label extension, during which each subject receives tradipitant 85 mg bid. 64 subjects participate in at least one week of the open label tradipitant dosing portion of the study. The average daily diarized nausea scores are reported for subjects during the 4 week screening period and during the up to 8 week open label extension.

brain NK-1 receptors = test: Occupancy of brain NK-1 receptors with tracer GR205171; type: in vivo; conditions: p.o., tracer GR205171 iv
Description: A tracer NK-1 antagonist compound (GR205171) is used to evaluate the ability of other NK-1 antagonists to occupy the brain NK-1 receptors. In these studies, the test compounds are administered orally and the tracer compound administered intravenously afterward. The occupancy of the NK-1 receptors is evaluated by quantitating the amount of the tracer compound bound to the brain NK-1 receptors after increasing doses of the test compounds.

SMILES: COc1ccc(C(C)C)cc1CN[C@H]1C2CCN(CC2)[C@H]1C(c1ccccc1)c1ccccc1 [CJ-11,974]
discomfort associated with rectosigmoidal distension (NK-1): alleviated the discomfort

time after administration up to which foot-tapping is significantly inhibited (NK-1 receptor [1]; 1.2 mg/kg po): up to 24 hours
ED50, inhibition of foot-tapping behavior (NK-1 receptor [1]; po, GR 73632 3 pmol icv, gerbil): 0.4 ± 0.05 mg/kg
SMILES: C[C@@H](O[C@H]1OCCN(Cc2n[nH]c(=O)[nH]2)[C@H]1c1ccc(F)cc1)c1cc(C(F)(F)F)cc(C(F)(F)F)c1 [MK-869]

SMILES: CC(=O)N[C@@H]1[C@@H](O)[C@H](O)[C@@H](CO)O[C@H]1NC(=O)C[C@@H]1NC(=O)[C@H](CC(C)C)NC(=O)[C@@H]2CNC(=O)C[C@H](NC1=O)C(=O)N[C@@H](Cc1c[nH]c3ccccc13)C(=O)N[C@@H](Cc1ccccc1)C(=O)N2 [nepadutant] (cyclo(D(NH(β-GlcNAc))DWF[Dap]L); lactam 2-5)
basal gastrointestinal motility (NK-2 receptor [2]): without affecting
motility-stimulating effect of neurokinin A (NK-2 receptor [2]): effectively antagonized

inhibition at the NK-3 receptor (NK-3 receptor): no significant inhibition
inhibition of vocalization at low doses (NK-1 receptor [3]; at and below 0.1 mg/kg, 0.05 and 0.025 mg/kg, p<0.001): retains significant inhibitory activity
suppression of agonist-induced vocalization, duration of activity study (NK-1 receptor [3]; single dose 0.1 mg/kg oral, 7 hours after administration): significantly active
activity in panel of 74 additional receptors, enzymes, and ion channels including NK-2 and NK-3 [4]: no significant activity
inhibition of binding ([4]; test concentration 1 μM, 74 targets): ≤ 50%
inhibition at the NK-2 receptor (NK-2 receptor [5]): no significant inhibition
time after administration up to which foot-tapping is significantly inhibited (NK-1 receptor [1]; 0.1 mg/kg po): up to 7 hours
time after administration up to which foot-tapping is significantly reversed (NK-1 receptor [1]; 1 mg/kg): up to 16 hours
SMILES: O=C(c1ccccc1Cl)c1cccnc1-c1nnn(Cc2cc(C(F)(F)F)cc(C(F)(F)F)c2)c1-c1ccncc1 [tradipitant, {2-[1-(3,5-bistrifluoromethylbenzyl)-5-pyridin-4-yl-1H-[1,2,3]triazol-4-yl]-pyridin-3-yl}-(2-chlorophenyl)-methanone]
change of average daily nausea score compared to pre-treatment (nausea in gastroparesis): reduced by approximately one half
change of average percentage of nausea-free days compared to pre-treatment (nausea in gastroparesis): doubled or greater
estimated ED50, brain NK-1 receptor occupancy (brain NK-1 receptors): 0.04 mg/kg
